Laboratory results from US10744146B2, “Composition having effects of preventing or ameliorating conditions or diseases caused by brain hypofunction” (SUNTORY HOLDINGS LIMITED, priority 2001, dated 2020).

What was measured:
old male Fischer rats = assay: Probe test after Morris water maze learning (time in quadrant where escape platform used to be); format: in vivo, rat; conditions: for time spent in the quadrant (¼) where the escape platform used to be, mean±standard deviation: old rats 21 months
Description: A Morris water maze learning test was conducted around the third month of the experiment (age of old rats: 21 months, age of young rats: 7 months). The Morris water maze test is a learning test based on spatial recognition in which water stained black with ink is filled (height of water level: 20 cm) into a water tank (diameter: 120 cm, height: 35 cm), a rat is placed on an escape platform of a size (diameter: 11.5 cm, height: 19 cm) that is just large enough for the rat to stand on (the escape platform is located beneath the surface of the water and cannot be seen by rats swimming in the water tank), the rat on which the learning test is to be performed is placed in the water tank at a predetermined location in the tank (starting point), and then forced to swim to the escape platform. This test is recognized to have a correlation with the hippocampus that governs memory, and is widely used in the US and Europe. As the test is repeated, the rats learn the location of the escape platform. The rats were allowed to learn using the method described below. Namely, after releasing a rat from the starting point of the Morris water maze test apparatus, if the rat was unable to reach the escape platform within 60 seconds, the rat was placed on the escape platform, thereby enabling it to learn the location of the unseen escape platform. This learning process was continued for 2 weeks no more than twice a day. The percentage of the amount of time required to swim from the starting point to the escape platform within an angular deviation range of ±15° to the total swimming time (Hit %, see FIG. 2) was used as an indicator of learning. […] In FIG. 3, each graduation on the scale of the horizontal axis represents four trials, or two days worth of testing.
Next, in order to determine the degree of learning acquisition, a probe test was conducted on the day after two weeks of the aforementioned learning, namely on day 15. If the escape platform is taken away after the rats have acquired learning, the rats swim around at the location where the escape platform used to be. The time during which the rats swim around at the former location of the escape platform based on the memory of where it used to be (evaluated by dividing the water tank into four quadrants and evaluated as the amount of time (seconds) spent in the quadrant where the escape platform used to be) can used to evaluate the degree of learning acquisition. The paths swam by the No. 1 and No. 2 rats of the YC group, OA group and OC group are shown (FIG. 4). Furthermore, as the rats were allowed to learn by changing the starting points for individual rats, the starting point (S) and quadrant where the escape platform used to be in FIG. 4 differ according to individual rats. […]

hippocampus LTP = conditions: 22-month-old rats, arachidonic acid diet 10 mg/rat/day for 8 weeks; versus 4-month-old young rats; cited from earlier work

Q: What does the source list for `CCCCC/C=C\C/C=C\C/C=C\C/C=C\CCCC(=O)OC(COC(=O)CCCCCCC)COC(=O)CCCCCCC` [8A8, 1,3-capryloyl-2-arachidonoyl-glycerol]?
A: absorption (old male Fischer rats; Example 4, inferred from the probe test at the same ingested amount of arachidonic acid): more easily absorbed than TGA40S; time spent in the quadrant (¼) where the escape platform used to be, mean±standard deviation (old male Fischer rats; Example 4, 40 mg arachidonic acid/rat/day, group OA 6 animals, group 8A8 8 animals): 27.18 ± 5.10 s; degree of learning acquisition (old male Fischer rats; Example 4, old rats, comparison between TGA40S and 8A8 and with young rats): tended to result in a higher degree of learning acquisition; time spent in the quadrant (¼) where the escape platform used to be, mean±standard deviation (old male Fischer rats; Example 5, arachidonic acid per rat per day: 8A8 diet 40 g (so in the source), 8A8-containing oil or fat diet 13.2 mg): 27.00 ± 4.65 s

Q: Which “hippocampus LTP levels” value (hippocampus LTP) does the source give for `CCCCC/C=C\C/C=C\C/C=C\C/C=C\CCCC(=O)O` [arachidonic acid] here?
A: Its value is “recovery to the level of young rats”.
